Assay results: patent US20250032523A1, “ACTIVE HUMAN MILK OLIGOSACCHARIDE PREPARATION WITH ALLERGY-ALLEVIATING FUNCTION, AND USE THEREOF” (Zhejiang Gongshang University, priority 2023, published 2025)
“Also recorded” adds a separate entry of the source.

Key:
[1] = test system: purified T cells from mouse spleen; experiment: Immune cell allergy model: RT-qPCR of allergy-associated genes in OVA-stimulated purified T cells from mouse spleen; assay type: cell-based; details: HMO preparation at final concentration 100 μg/mL, versus sensitization group
Procedure: (§1) In a fourth aspect, the present disclosure also provides a use of the active HMO preparation in construction of an immune cell allergy model, where the construction method of the immune cell allergy model includes the following steps: • (1) taking a cryopreserved mouse bone marrow-derived dendritic cell (DC) line DC2.4, and subjecting the cryopreserved mouse bone marrow-derived DC line DC2.4 to recovery, activation, and subculture in an incubator (37° C. and 5% CO2); • (2) sacrificing a Balb/c female mouse through cervical dislocation, collecting a spleen in a clean bench, subjecting the spleen to grinding, red blood cell lysis, washing, and re-suspension with a cell culture medium to obtain a mouse spleen single-cell suspension, and purifying T cells from the spleen single-cell suspension through magnetic bead separation; • (3) inoculating the cells in a 12-well cell culture plate, dividing the cells into a control group, a sensitization group, and an intervention group with 3 biological replicates for each group, and culturing the cells in an incubator (37° C. and 5% CO2); and • (4) extracting total RNA from cells, and detecting an RNA concentration with a nucleoprotein concentration meter for follow-up experiments; and reverse-transcribing the extracted RNA immediately into cDNA, conducting quantitative reverse transcription polymerase chain reaction (RT-qPCR), and with β-actin as an internal reference gene, calculating a relative expression level of a target gene by a 2^−ΔΔCt method.
(§2) In the present disclosure, an effect of the preparation is verified. When the immune cell allergy model is constructed, a sensitinogen used is ovalbumin (OVA), and relative expression levels of genes for a pro-inflammatory factor OX40L, an anti-inflammatory factor IL-10, a Th2-type cytokine IL-5, a Th1-type associated cytokine T-bet, a Th2-type cytokine IL-4, and a Th1-type associated cytokine IFN-γ are calculated.
(2) An SPF grade Balb/c female mouse was sacrificed through cervical dislocation and dissected under sterile conditions, a spleen tissue was collected and subjected to grinding, red blood cell lysis, washing, and re-suspension with an RPMI-1640 medium to prepare a mouse spleen single-cell suspension, and T cells in the mouse spleen were extracted through magnetic bead separation.
(3) The cells were divided into 4 groups with 3 replicates for each group, including a control group, a sensitization group, an HMO preparation intervention group 1 (Example 1), and an HMO preparation intervention group 2 (Example 2). […]
(§3) (4) Total RNA was extracted from cells and reverse-transcribed into cDNA, and an expression level of an allergy-associated gene in the cells was detected by RT-qPCR. […]

food allergy mice = experiment: Food allergy mice (OVA sensitization), intragastric HMO preparation, RT-qPCR of spleen tissue; assay type: in vivo, mouse; details: OVA-sensitized mice, intragastric administration, versus sensitized mice
Excerpt: The anti-allergy active HMO preparations of LNFP-I and 2′-FL were intragastrically administered to food allergy mice to alleviate food allergy symptoms.
(1) Mice were intragastrically administered with OVA for sensitization, and then intervened with an HMO preparation intervention group 1 (Example 1) and an HMO preparation intervention group 2 (Example 2), respectively.
(2) The mice were sacrificed through cervical dislocation and dissected under sterile conditions, and spleen tissues were collected and stored in liquid nitrogen.
(3) Total RNA was extracted from each mouse spleen tissue and reverse-transcribed into cDNA, and an expression level of an allergy-associated gene was detected by RT-qPCR.
The anti-allergy active HMO preparations were intragastrically administered in a mass ratio of 1:3 to food allergy mice to alleviate food allergy symptoms.
(1) Mice were intragastrically administered with OVA for sensitization, and then intervened with the anti-allergy active HMO preparation prepared in Example 5 at a mass ratio of 1:3.

[2] = test system: mouse bone marrow-derived DC line DC2.4; experiment: Immune cell allergy model: RT-qPCR of allergy-associated genes in OVA-stimulated DC2.4 cells; assay type: cell-based; details: HMO preparation at final concentration 100 μg/mL, versus sensitization group
Procedure: as §1, §2
(1) A cryopreserved mouse bone marrow-derived DC line DC2.4 was taken and subjected to recovery, activation, and subculture, and cells of generation 4 to 6 with a strong activity were selected for the experiment.
(3) The cells were divided into 4 groups with 3 replicates for each group, including a control group, a sensitization group, an HMO preparation intervention group 1 (Example 1), and an HMO preparation intervention group 2 (Example 2). In the HMO preparation intervention groups, an HMO preparation was added at a final concentration of 100 μg/mL to cells, and the cells were cultured in an incubator (37° C. and 5% CO2).
as §3

Substance	expression level of the gene for Th1-type associated cytokine T-bet (relative mRNA, RT-qPCR) [1]	expression level of the gene for Th2-type cytokine IL-5 (relative mRNA, RT-qPCR) [1]	expression level of the gene for Th1-type associated cytokine IFN-γ in spleen (relative mRNA, RT-qPCR) (food allergy mice)	expression level of the gene for Th2-type cytokine IL-4 in spleen (relative mRNA, RT-qPCR) (food allergy mice)	expression level of the gene for anti-inflammatory factor IL-10 (relative mRNA, RT-qPCR) [2]	expression level of the gene for pro-inflammatory factor OX40L (relative mRNA, RT-qPCR) [2]
2′-fucosyllactose [intervention group 2]	significantly stimulate an expression level of the gene for T-bet to increase	decreases to some degree	greatly stimulate an expression level of the gene for IFN-γ to further increase	decrease significantly	significantly stimulate an expression level of a gene for IL-10 to further increase	can be reduced
lacto-N-fucopentaose I [intervention group 1]	significantly stimulate an expression level of the gene for T-bet to increase; also recorded: increases more significantly than an expression level of the gene for T-bet in the intervention group 2	decreases slightly	significantly stimulate an expression level of the gene for IFN-γ to further increase	does not change significantly	significantly stimulate an expression level of a gene for IL-10 to further increase; also recorded: increases more than an expression level of the gene for IL-10 in the intervention group 2	can be reduced
